Experimental data published in patent US8940736B2, “Imidazotriazinecarbonitriles useful as kinase inhibitors” (Bristol-Myers Squibb Company, priority 2012, dated 2015).

Columns and labels:
[1] = biological target: recombinant CK2A1 (Homo sapiens (Human), UniProt P68400); assay: CK2 kinase assay (CK2A1); type: biochemical; details: Table B, comparison compound of WO 2007/038314 / US 2008/0045536
Procedure: (§1) For example, in vitro protein kinase assays may be conducted with a relevant purified protein kinase and an appropriate synthetic substrate to determine the inhibitory activity of the compounds. […] Reaction mixtures were incubated at 30° C. for 1 hour, and reaction products were captured by binding to phosphocellulose (P81) filter plates. Incorporation of radioactive phosphate into the peptide substrate was determined by liquid scintillation counting.
(§2) The inhibitory activity of the instant compounds may also be measured by recombinant CK2 holoenzyme kinase assays. The assays were performed in U-bottom 384-well plates. […] The reaction was initiated by the combination of bacterially expressed, CK2α/β or CK2α′/β holoenzyme with substrates and test compounds. […] Compounds were dissolved at 10 mM in dimethylsulfoxide (DMSO) and evaluated at eleven concentrations. IC50 values were derived by non-linear regression analysis.

[2] = biological target: recombinant CK2A2 (Homo sapiens (Human), UniProt P19784); assay: CK2 kinase assay (CK2A2); type: biochemical; details: Table B, comparison compound of WO 2007/038314 / US 2008/0045536
Chain of recombinant CK2A2 (P19784 whole entry): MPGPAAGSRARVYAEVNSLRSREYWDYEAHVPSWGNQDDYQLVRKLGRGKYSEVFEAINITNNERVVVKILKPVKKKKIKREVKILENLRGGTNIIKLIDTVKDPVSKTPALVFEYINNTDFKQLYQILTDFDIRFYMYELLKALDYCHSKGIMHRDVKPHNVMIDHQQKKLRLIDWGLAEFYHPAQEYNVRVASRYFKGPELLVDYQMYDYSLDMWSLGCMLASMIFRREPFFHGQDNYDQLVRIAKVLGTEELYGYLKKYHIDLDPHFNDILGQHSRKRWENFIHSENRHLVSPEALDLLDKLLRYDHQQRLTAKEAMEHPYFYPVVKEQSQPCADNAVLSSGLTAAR
Procedure: as §1, §2

Chain of recombinant CK2A1 (P68400 whole entry): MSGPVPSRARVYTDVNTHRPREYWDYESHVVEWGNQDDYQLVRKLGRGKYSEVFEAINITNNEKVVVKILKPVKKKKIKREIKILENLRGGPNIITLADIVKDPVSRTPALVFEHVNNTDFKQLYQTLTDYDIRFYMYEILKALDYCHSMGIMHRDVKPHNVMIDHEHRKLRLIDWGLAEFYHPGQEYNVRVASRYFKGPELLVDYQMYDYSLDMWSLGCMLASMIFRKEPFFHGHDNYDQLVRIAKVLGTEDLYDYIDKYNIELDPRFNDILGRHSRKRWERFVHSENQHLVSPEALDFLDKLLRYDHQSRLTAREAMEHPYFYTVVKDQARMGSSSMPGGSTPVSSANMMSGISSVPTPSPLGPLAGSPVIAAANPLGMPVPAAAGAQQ

Compound `CCOc1ccc(Nc2nc(N[C@H]3CC[C@@H](N)CC3)nn3ccnc23)cc1` [XIII] has an IC50 [1] of 1800 nM and an IC50 [2] of 331 nM.
